Data from patent publication EP2276483B1, “SOLID FORMS COMPRISING (+)-2-[1-(3-ETHOXY-4-METHOXYPHENYL)-2-METHYLSULFONYLETHYL]-4-ACETYLAMINOISOINDOLINE-1,3-DIONE, COMPOSITIONS THEREOF, AND USES THEREOF” (CELGENE CORPORATION, priority 2008, dated 2009).
Converted amounts (≈) assume the structure as drawn. Where two headings read alike, the source gives them in different places.

Experiments:
[1] = Stability Studies of solid forms; assay type: physicochemical
Method: Stability Studies. The stabilities of Forms A, B, C and D were studied by exposing the solid samples to the stress condition of 40 °C / 75% RH for four weeks. Moreover, the stabilities of Forms A, B, C and D in different solvents were studied by equilibration in different solvents at 40 °C for four weeks. The slurries then were filtered and dried in the air. Solid samples obtained from the stability experiments were analyzed by XRPD and DSC.

[2] = Hygroscopicity studies (DVS moisture sorption/desorption); assay type: physicochemical; conditions: for mass change of the starting mass of the sample (moisture sorption): RH increased from about 0% to about 95% RH; for solid-state transformation as a result of DVS analysis (XRPD): after full adsorption/desorption cycle, about 0% to about 95% RH, about 25 °C
Method: Hygroscopicity studies. The hygroscopicity of various solid forms was studied using a Surface Measurement Systems DVS instrument. Typically a sample size of between about 10-50 mg was loaded into the DVS instrument sample pan and the sample was analyzed on a DVS automated sorption analyzer at about 25 °C. The relative humidity was increased in increments of about 10% from about 0% to about 95% RH: The relative humidity was then decreased in a similar manner to accomplish a full adsorption/desorption cycle. The mass was recorded at periodic intervals throughout the experiment.
Hygroscopicity Studies. […] Table 6. Solubility Study on Form B

[3] = Interconversion Studies of solid forms; assay type: physicochemical; conditions: EQ in acetone:ethanol (1:1) at 25 °C; slurry agitated at least 2 days
Method: Interconversion Studies. Interconversion experiments were performed by making slurries of a solid form in a saturated solvent. The slurries were agitated for at least 2 days at about 25 °C. The saturated solution was removed by filtration and the solid was dried in the air.

[4] = Compression Studies of solid forms; conditions: 2000 psi force for at least one minute
[5] = Solubility Studies in solvents; assay type: physicochemical; conditions: 25 °C, thermodynamic from solid, about 25 °C, read-out: Approximate Solubility
Method: Solubility Studies. A weighed sample of Compound A (about 100 mg) was treated with about 2 mL of the test solvent. The solvents used were either reagent or HPLC grade. The resulting mixture was agitated for at least 24 hours at about 25 °C. When all of the solids were dissolved by visual inspection, the estimated solubilities were calculated. The solubilities were estimated from these experiments based on the total volume of solvent used to give a solution. The actual solubilities may be greater than those calculated due to the use of large amount of solvent or to a slow rate of dissolution. […] A known volume of filtrate was evaporated to dryness and the weight of the residue was measured.
Solubility Studies. […] Form B was also found to have low solubility in several solvents including n-butanol, heptane, 2-propanol, toluene and water (less than about 1 mg/mL).

[6] = EQ in ethanol at 40 °C for 4 weeks
[7] = EQ in heptane at 40 °C for 4 weeks
[8] = EQ in toluene at 40 °C for 4 weeks
[9] = EQ in water at 40 °C for 4 weeks

Row | SMILES | Analysis by XRPD (resulting form) ([1]; 40 °C / 75% RH, 4 weeks) | Appearance ([1]; 40 °C / 75% RH, 4 weeks) | Analysis by XRPD (resulting form) [1, 6] | Analysis by XRPD (resulting form) [1, 7] | Analysis by XRPD (resulting form) [1, 8] | Analysis by XRPD (resulting form) [1, 9] | mass change of the starting mass of the sample (moisture sorption) [2] | solid-state transformation as a result of DVS analysis (XRPD) [2] | Analysis by XRPD (resulting form) [3] | physical stability upon compression by XRPD analysis [4] | also measured
1 | CCOc1cc(C(CS(C)(=O)=O)N2C(=O)c3cccc(NC(C)=O)c3C2=O)ccc1OC (single isomer, unassigned; (+)) [Form D, (+)-2-[1-(3-ethoxy-4-methoxyphenyl)-2-methylsulfonylethyl]-4-acetylaminoisoindoline-1,3-dione] | Form D | White solid | Form B | Form B | Form C | Form B | about 1.5% | none of the forms analyzed underwent substantial solid-state transformation | Form B | substantially physically stable | 
2 | CCOc1cc(C(CS(C)(=O)=O)N2C(=O)c3cccc(NC(C)=O)c3C2=O)ccc1OC (single isomer, unassigned; (+)) [Form G, (+)-2-[1-(3-ethoxy-4-methoxyphenyl)-2-methylsulfonylethyl]-4-acetylaminoisoindoline-1,3-dione] |  |  |  |  |  |  | about 0.4% | none of the forms analyzed underwent substantial solid-state transformation | Form B |  | 
3 | CCOc1cc(C(CS(C)(=O)=O)N2C(=O)c3cccc(NC(C)=O)c3C2=O)ccc1OC (single isomer, unassigned; (+)) [Form A, (+)-2-[1-(3-ethoxy-4-methoxyphenyl)-2-methylsulfonylethyl]-4-acetylaminoisoindoline-1,3-dione] | Form A | White solid | Form F | Form A | Form C | Form A | about 0.4% | none of the forms analyzed underwent substantial solid-state transformation | Form B | substantially physically stable | 
4 | CCOc1cc(C(CS(C)(=O)=O)N2C(=O)c3cccc(NC(C)=O)c3C2=O)ccc1OC (single isomer, unassigned; (+)) [Form C, (+)-2-[1-(3-ethoxy-4-methoxyphenyl)-2-methylsulfonylethyl]-4-acetylaminoisoindoline-1,3-dione] | Form C | Yellow solid | Form C | Form C | Form C | Form C | about 0.5% | none of the forms analyzed underwent substantial solid-state transformation | Form C | substantially physically stable | 
5 | CCOc1cc(C(CS(C)(=O)=O)N2C(=O)c3cccc(NC(C)=O)c3C2=O)ccc1OC (single isomer, unassigned; (+)) [Form F, (+)-2-[1-(3-ethoxy-4-methoxyphenyl)-2-methylsulfonylethyl]-4-acetylaminoisoindoline-1,3-dione] |  |  |  |  |  |  | about 0.2% | none of the forms analyzed underwent substantial solid-state transformation | Form F |  | 
6 | CCOc1cc(C(CS(C)(=O)=O)N2C(=O)c3cccc(NC(C)=O)c3C2=O)ccc1OC (single isomer, unassigned; (+)) [Form B, (+)-2-[1-(3-ethoxy-4-methoxyphenyl)-2-methylsulfonylethyl]-4-acetylaminoisoindoline-1,3-dione] | Form B | White solid | Form B | Form B | Form B | Form B | about 0.6% | none of the forms analyzed underwent substantial solid-state transformation |  | substantially physically stable | solubility ([5]; 2-propanol, organic solvent or mixture, 2-Propanol): < 1000 µg/mL; solubility ([5]; absolute ethanol, organic solvent or mixture, Absolute ethanol): 1380 µg/mL (≈ 3 mM); solubility ([5]; acetone, organic solvent or mixture, Acetone): > 50000 µg/mL; solubility ([5]; acetonitrile, organic solvent or mixture, Acetonitrile): > 50000 µg/mL; solubility ([5]; ethanol:water (1:1), aqueous with cosolvent or surfactant or cyclodextrin, Ethanol: Water (1:1)): 2860 µg/mL (≈ 6.21 mM); solubility ([5]; ethyl acetate, organic solvent or mixture, Ethyl acetate): ~30200 µg/mL (≈ 65.5 mM); solubility ([5]; methanol, organic solvent or mixture, Methanol): 4050 µg/mL (≈ 8.79 mM); solubility ([5]; methyl ethyl ketone, organic solvent or mixture, Methyl ethyl ketone): > 50000 µg/mL; solubility ([5]; methyl t-butyl ether, organic solvent or mixture, Methyl t-butyl ether): 1170 µg/mL (≈ 2.54 mM); solubility ([5]; methylene chloride, organic solvent or mixture, Methylene chloride): > 50000 µg/mL; solubility ([5]; n-butanol, organic solvent or mixture, n-Butanol): < 1000 µg/mL; solubility ([5]; n-butyl acetate, organic solvent or mixture, n-Butyl acetate): 9750 µg/mL (≈ 21.2 mM); solubility ([5]; tetrahydrofuran, organic solvent or mixture, Tetrahydrofuran): > 50000 µg/mL; solubility ([5]; toluene, organic solvent or mixture, Toluene): < 1000 µg/mL; solubility ([5]; water, water, Water): < 1000 µg/mL
7 | CCOc1cc(C(CS(C)(=O)=O)N2C(=O)c3cccc(NC(C)=O)c3C2=O)ccc1OC (single isomer, unassigned; (+)) [Form E, (+)-2-[1-(3-ethoxy-4-methoxyphenyl)-2-methylsulfonylethyl]-4-acetylaminoisoindoline-1,3-dione] |  |  |  |  |  |  | about 5.1% | none of the forms analyzed underwent substantial solid-state transformation | Form B |  | 
